Experimental data as given in patent US20260232767A1, “INTERLEUKIN-23 RECEPTOR ANTAGONIST PEPTIDES FOR USE IN THE TREATMENT OF PSORIASIS” (Janssen Pharmaceutica NV, priority 2023, published 2026).

Tested on: subjects with moderate-to-severe plaque psoriasis
Assay: Safety, adverse events, Example 2 through Week 56
Assay type: in vivo, human
Source text: The LTE safety analysis was based on randomized participants in Example who entered the present long-term extension study and received at least one dose of study intervention (including a partial dose) during the study period.

[1] = 100 mg QD, Week 16 through Week 56
[2] = 100 mg QD, LTE Safety analysis set

CC(=O)NCCCC[C@@H]1NC(=O)[C@H](Cc2c[nH]c3c(C)cccc23)NC(=O)[C@H]([C@@H](C)O)NC(=O)[C@H](CC(N)=O)NC(=O)[C@@H](NC(C)=O)C(C)(C)SSC(C)(C)[C@@H](C(=O)N[C@@H](Cc2ccc(OCCN)cc2)C(=O)N[C@@H](Cc2ccc3ccccc3c2)C(=O)NC2(C(=O)N[C@@H](CCC(=O)O)C(=O)N[C@@H](CC(N)=O)C(=O)N[C@@H](Cc3cccnc3)C(=O)N(C)CC(N)=O)CCOCC2)NC1=O [IL-23 receptor antagonist peptide, Ac-[Pen]*-N-T-[W(7-Me)]-[Lys(Ac)]-[Pen]*-Phe[4-(2-aminoethoxy)]-[2-Nal]-[THP]-E-N-[3-Pal]-Sarc-NH2 (*[Pen]-[Pen]* formdisulfidebond)]
5: Subjects with treatment-emergent AE: Nasopharyngitis (100 mg BID, through Week 56)
(2.5%): Subjects with treatment-emergent AE: Cholelithiasis (%) [1] | Subjects with treatment-emergent AE: Ear and labyrinth disorders (%) [1] | Subjects with treatment-emergent AE: Hepatobiliary disorders (%) [1] | Subjects with treatment-emergent AE: Vertigo (%) [1]
0: Skin laceration: number of subjects (100 mg BID, through Week 56) | Social circumstances: number of subjects (100 mg BID, through Week 56) | Steatohepatitis: number of subjects (100 mg BID, through Week 56) | Subjects with AE leading to discontinuation: Abdominal pain (100 mg BID, through Week 56) | Subjects with AE leading to discontinuation: Alanine aminotransferase increased (100 mg BID, through Week 56) | Subjects with AE leading to discontinuation: Aspartate aminotransferase increased (100 mg BID, through Week 56) | Subjects with AE leading to discontinuation: Asthenia (100 mg BID, through Week 56) | Subjects with AE leading to discontinuation: Chills (100 mg BID, through Week 56) | Subjects with AE leading to discontinuation: Ear and labyrinth disorders (100 mg BID, through Week 56) | Subjects with AE leading to discontinuation: Gamma-glutamyltransferase increased (100 mg BID, through Week 56) | Subjects with AE leading to discontinuation: General disorders and administration site conditions (100 mg BID, through Week 56) | Subjects with AE leading to discontinuation: Headache (100 mg BID, through Week 56) | Subjects with AE leading to discontinuation: Insomnia (100 mg BID, through Week 56) | Subjects with AE leading to discontinuation: Investigations (100 mg BID, through Week 56) | Subjects with AE leading to discontinuation: Nausea (100 mg BID, through Week 56) | Subjects with AE leading to discontinuation: Nervous system disorders (100 mg BID, through Week 56) | Subjects with AE leading to discontinuation: Proctalgia (100 mg BID, through Week 56) | Subjects with AE leading to discontinuation: Psoriasis (100 mg BID, through Week 56) | Subjects with AE leading to discontinuation: Psychiatric disorders (100 mg BID, through Week 56) | Subjects with AE leading to discontinuation: Skin and subcutaneous tissue disorders (100 mg BID, through Week 56) | Subjects with AE leading to discontinuation: Suicide attempt (100 mg BID, through Week 56) | Subjects with AE leading to discontinuation: Transaminases increased (100 mg BID, through Week 56) | Subjects with AE leading to discontinuation: Vertigo (100 mg BID, through Week 56) | Subjects with AE leading to discontinuation: Vomiting (100 mg BID, through Week 56) | Subjects with AE leading to discontinuation: Weight increased (100 mg BID, through Week 56) | Subjects with treatment-emergent AE: Bronchitis (100 mg BID, through Week 56) | Subjects with treatment-emergent serious AE: COVID-19 (100 mg BID, through Week 56) | Subjects with treatment-emergent serious AE: Cardiac disorders (100 mg BID, through Week 56) | Subjects with treatment-emergent serious AE: Cerebrovascular accident (100 mg BID, through Week 56) | Subjects with treatment-emergent serious AE: Coronary artery disease (100 mg BID, through Week 56) | Subjects with treatment-emergent serious AE: Diverticulitis (100 mg BID, through Week 56) | Subjects with treatment-emergent serious AE: Foot deformity (100 mg BID, through Week 56) | Subjects with treatment-emergent serious AE: General disorders and administration site conditions (100 mg BID, through Week 56) | Subjects with treatment-emergent serious AE: Infected cyst (100 mg BID, through Week 56) | Subjects with treatment-emergent serious AE: Infections and infestations (100 mg BID, through Week 56) | Subjects with treatment-emergent serious AE: Injury, poisoning and procedural complications (100 mg BID, through Week 56) | Subjects with treatment-emergent serious AE: Intervertebral disc protrusion (100 mg BID, through Week 56) | Subjects with treatment-emergent serious AE: Ligament injury (100 mg BID, through Week 56) | Subjects with treatment-emergent serious AE: Musculoskeletal and connective tissue disorders (100 mg BID, through Week 56) | Subjects with treatment-emergent serious AE: Nervous system disorders (100 mg BID, through Week 56) | Subjects with treatment-emergent serious AE: Non-cardiac chest pain (100 mg BID, through Week 56) | Subjects with treatment-emergent serious AE: Psychiatric disorders (100 mg BID, through Week 56) | Subjects with treatment-emergent serious AE: Respiratory, thoracic and mediastinal disorders (100 mg BID, through Week 56) | Subjects with treatment-emergent serious AE: Suicide attempt (100 mg BID, through Week 56) | Subjects with treatment-emergent serious AE: Tonsillar hypertrophy (100 mg BID, through Week 56) | Subjects with treatment-emergent serious AE: Ventricular dysfunction (100 mg BID, through Week 56) | Suicide attempt: number of subjects (100 mg BID, through Week 56) | Sunburn: number of subjects (100 mg BID, through Week 56) | Thrombocytopenia: number of subjects (100 mg BID, through Week 56) | Tonsillar hypertrophy: number of subjects (100 mg BID, through Week 56) | Ventricular dysfunction: number of subjects (100 mg BID, through Week 56) | Vertigo: number of subjects (100 mg BID, through Week 56) | Vitamin D deficiency: number of subjects (100 mg BID, through Week 56) | Number of subjects with treatment-emergent AE: Endocrine disorders [1] | Number of subjects with treatment-emergent AE: Eye disorders [1] | Number of subjects with treatment-emergent AE: Eyelid skin dryness [1] | Number of subjects with treatment-emergent AE: Goiter [1] | Number of subjects with treatment-emergent AE: Hypertransaminasemia [1] | Number of subjects with treatment-emergent AE: Immune system disorders [1] | Number of subjects with treatment-emergent AE: Insomnia [1] | Number of subjects with treatment-emergent AE: Ocular cyst [1] | Number of subjects with treatment-emergent AE: Psychiatric disorders [1] | Number of subjects with treatment-emergent AE: Retinal vein occlusion [1] | Number of subjects with treatment-emergent AE: Seasonal allergy [1] | Subjects with adverse event: Alanine aminotransferase increased [2] | Subjects with adverse event: Aspartate aminotransferase increased [2] | Subjects with adverse event: Bronchitis [2] | Subjects with adverse event: Meniscus injury [2] | Subjects with adverse event: Sinusitis [2] | Subjects with adverse event: Urinary tract infection [2] | Subjects with serious adverse event: Cerebrovascular accident [2] | Subjects with serious adverse event: Coronary artery disease [2] | Subjects with serious adverse event: Foot deformity [2] | Subjects with serious adverse event: Ligament injury [2] | Subjects with serious adverse event: Non-cardiac chest pain [2] | Subjects with serious adverse event: Tonsillar hypertrophy [2] | Subjects with serious adverse event: Uterine leiomyoma [2] | Subjects with serious adverse event: Ventricular dysfunction [2] | Subjects with AE leading to discontinuation: Alanine aminotransferase increased (100 mg QD, Week 16-56) | Subjects with AE leading to discontinuation: Aspartate aminotransferase increased (100 mg QD, Week 16-56) | Subjects with AE leading to discontinuation: Asthenia (100 mg QD, Week 16-56) | Subjects with AE leading to discontinuation: Gamma-glutamyltransferase increased (100 mg QD, Week 16-56) | Subjects with AE leading to discontinuation: Insomnia (100 mg QD, Week 16-56) | Subjects with AE leading to discontinuation: Investigations (100 mg QD, Week 16-56) | Subjects with AE leading to discontinuation: Proctalgia (100 mg QD, Week 16-56) | Subjects with AE leading to discontinuation: Psoriasis (100 mg QD, Week 16-56) | Subjects with AE leading to discontinuation: Psychiatric disorders (100 mg QD, Week 16-56) | Subjects with AE leading to discontinuation: Skin and subcutaneous tissue disorders (100 mg QD, Week 16-56) | Subjects with COVID-19 associated AE of interest: SARS-CoV-2 test positive (100 mg QD, Week 16-56) | Subjects with treatment-emergent AE: Alanine aminotransferase increased (100 mg QD, Week 16-56) | Subjects with treatment-emergent AE: Aspartate aminotransferase increased (100 mg QD, Week 16-56)
1: Rhinorrhoea: number of subjects (100 mg BID, through Week 56) | Seasonal allergy: number of subjects (100 mg BID, through Week 56) | Skin papilloma: number of subjects (100 mg BID, through Week 56) | Thrombocytosis: number of subjects (100 mg BID, through Week 56) | Tooth fracture: number of subjects (100 mg BID, through Week 56) | Type 2 diabetes mellitus: number of subjects (100 mg BID, through Week 56) | Urinary tract disorder: number of subjects (100 mg BID, through Week 56) | Uterine leiomyoma: number of subjects (100 mg BID, through Week 56) | Number of subjects with treatment-emergent AE: Cholelithiasis [1] | Number of subjects with treatment-emergent AE: Ear and labyrinth disorders [1] | Number of subjects with treatment-emergent AE: Hepatobiliary disorders [1] | Number of subjects with treatment-emergent AE: Vertigo [1]
3: Skin and subcutaneous tissue disorders: number of subjects (100 mg BID, through Week 56)
(4.8%): Vascular disorders: % of subjects (100 mg BID, through Week 56)
(7.1%): Skin and subcutaneous tissue disorders: % of subjects (100 mg BID, through Week 56)
(2.4%): Rhinorrhoea: % of subjects (100 mg BID, through Week 56) | Seasonal allergy: % of subjects (100 mg BID, through Week 56) | Skin papilloma: % of subjects (100 mg BID, through Week 56) | Thrombocytosis: % of subjects (100 mg BID, through Week 56) | Tooth fracture: % of subjects (100 mg BID, through Week 56) | Type 2 diabetes mellitus: % of subjects (100 mg BID, through Week 56) | Urinary tract disorder: % of subjects (100 mg BID, through Week 56) | Uterine leiomyoma: % of subjects (100 mg BID, through Week 56)
2: Vascular disorders: number of subjects (100 mg BID, through Week 56)
7: Subjects with treatment-emergent AE: Gastrointestinal disorders (100 mg BID, through Week 56)
